Assay results taken from patent publication US20120208781A1, “AMINOGLYCOSIDE DOSING REGIMENS” (Achaogen, Inc., priority 2009, published 2012).
Converted amounts (≈) assume the structure as drawn. Like-named read-outs stand apart in the source and are kept apart here.

What was measured:
E. coli = test: MIC, further Brooklyn patient isolates: E. coli; type: cell-based; parameters: unit not given beside the values; conditions: E. coli (n = 3071)
Method: (§1) Minimum inhibitory concentrations (MIC) were determined by reference Clinical and Laboratory Standards Institute (CLSI) broth microdilution methods per M7-A7 [2006]. Briefly, serial two-fold dilutions of Compound 1 and comparator AGs (together, “the test compounds”) were prepared at 2× concentration in appropriate diluent. The dilutions were mixed in 96-well assay plates with bacterial inoculum. Bacteria were suspended in sterile saline and added to each assay plate to obtain a final concentration of 5.5×10^5 CFU/mL. The plates were incubated at 35° C. for 20 hours in ambient air. […] After incubation, assay plates were read using a microtiter plate reader at 600 nm.
(§2) Further studies analyzed a greater number of unique patient isolates obtained from Brooklyn, N.Y. hospitals (including those species described above). These species included Acinetobacter, E. coli, Enterobacter, Klebsiella, and Pseudomonas.

Enterobacter = test: MIC, further Brooklyn patient isolates: Enterobacter; type: cell-based; parameters: unit not given beside the values; conditions: Enterobacter (n = 206)
Method: as §1, §2

Enterobacter spp. (EB) = test: MIC, broth microdilution, Brooklyn hospital isolates: Enterobacter spp.; type: cell-based; conditions: EB (n = 30)
Method: (§3) In another study, the activity of Compound 1 against a collection of contemporary Gram-negative bacteria was determined. Unique patient isolates of P. aeruginosa (PA), A. baumannii (AB), K. pneumoniae (KP), E. coli (EC), and Enterobacter spp. (EB) from prior surveys at 16 Brooklyn, N.Y. hospitals were selected based on resistance patterns. The majority of isolates were fingerprinted by automated ribotyping. MICs were performed by broth microdilution. PCR was used to identify aminoglycoside-modifying enzymes (AMEs) in AB and KP and the KPC gene in Enterobacteriaceae (EN). The expression of the efflux genes mexA, C, E and X in PA, and adeB in AB was assessed by real-time RT-PCR.

E. coli (EC) = test: MIC, broth microdilution, Brooklyn hospital isolates: E. coli; type: cell-based; conditions: EC (n = 32)
Method: as §3

P. aeruginosa (PA) = test: MIC, broth microdilution, Brooklyn hospital isolates: P. aeruginosa; type: cell-based; conditions: PA (n = 33)
Method: as §3

A. baumannii (AB) = test: MIC, broth microdilution, Brooklyn hospital isolates: A. baumannii; type: cell-based; conditions: AB (n = 38)
Method: as §3

K. pneumoniae (KP) = test: MIC, broth microdilution, Brooklyn hospital isolates: K. pneumoniae; type: cell-based; conditions: KP (n = 71)
Method: as §3

rat kidney [1] = test: Rat nephrotoxicity model: serum markers of GFR (BUN, serum creatinine); type: in vivo, Sprague-Dawley rats; conditions: dose-response for BUN elevation
rat kidney [2] = test: Rat nephrotoxicity model: kidney histopathology (H&E); type: in vivo, Sprague-Dawley rats; conditions: rats, 14 d once-daily
Method: This rat nephrotoxicity study design used 14 days of once-daily dosing of aminoglycosides in adult Sprague-Dawley rats. Rats were allowed full access to food and water, and aminoglycosides were dosed subcutaneously at 1 mL/kg dosing volume, formulated in water. Nephrotoxicity was assessed by monitoring changes in serum markers of glomerular filtration rate (GFR), namely blood urea nitrogen (BUN) and serum creatinine. Microscopic examination of kidney slices after fixation and hematoxylin and eosin (H&E) staining was also utilized, scoring for tubular dilation, cellular casts, interstitial inflammation, and regenerative changes to the tubules.

[3] = rat, in vivo
Method: The AGs were administered to the rats according to the dose levels depicted in Table 6. The animals of Groups 11-13 were housed until day 15 even though their dosing ended on day 5, such that all animals were necropsied on the same day. Blood was collected in EDTA at days 0, 6, 11, and 15. 750 uL blood samples were collected and aliquoted into a lithium heparin tube and an EDTA tube. Clinical chemistry analysis was performed using the Idexx VETTEST 8008 system. Kidney samples were embedded in paraffin, sectioned, stained with hematoxylin and eosin and examined microscopically.

## CO/N=C(\C(=O)N[C@@H]1C(=O)N2C(C(=O)[O-])=C(C[N+]3(C)CCCC3)CS[C@H]12)c1csc(N)n1 [FEP, cefepime]
E. coli
  MIC50: ≦0.25
  MIC90: ≦0.25
Enterobacter
  MIC50: ≦0.25

## C[C@@H](O)[C@H]1C(=O)N2C(C(=O)O)=C(SCCN=CN)C[C@H]12 [Imipenem]
Enterobacter spp. (EB)
  Susceptible: 93%
Enterobacter spp. (EB); Enterobacter
  MIC50: 0.5 µg/mL (≈ 1.67 µM)
  MIC90: 2 µg/mL (≈ 6.68 µM)
E. coli (EC)
  Susceptible: 91%
E. coli (EC); Escherichia coli
  MIC50: 0.125 µg/mL (≈ 0.418 µM)
  MIC90: 4 µg/mL (≈ 13.4 µM)
P. aeruginosa (PA)
  Susceptible: 55%
P. aeruginosa (PA); Pseudomonas aeruginosa
  MIC50: 4 µg/mL (≈ 13.4 µM)
  MIC90: > 8 µg/mL
A. baumannii (AB)
  Susceptible: 55%
A. baumannii (AB); Acinetobacter baumannii
  MIC50: 4 µg/mL (≈ 13.4 µM)
  MIC90: > 8 µg/mL
K. pneumoniae (KP)
  Susceptible: 79%
K. pneumoniae (KP); Klebsiella pneumoniae
  MIC50: 0.25 µg/mL (≈ 0.835 µM)
  MIC90: > 8 µg/mL

## NC[C@@H]1O[C@H](O[C@H]2[C@@H](O)[C@H](O[C@@H]3[C@@H](O)[C@H](N)C[C@H](N)[C@H]3O[C@H]3O[C@H](CO)[C@@H](O)[C@H](O)[C@H]3N)O[C@@H]2CO)[C@H](N)[C@@H](O)[C@@H]1O [Paromomycin, paromomycin]
Rat kidney [1]
  apparent relative nephrotoxicity (ranking): Neomycin≈Gentamicin>Tobramycin>Apramycin≈Paromomycin>Amikacin
Rat kidney [2]; 30 mg/kg
  Histopathology score (0 to 5 Scale): Casts: 0 +/− 0
  Histopathology score (0 to 5 Scale): Dilation: 1 +/− 1
  Histopathology score (0 to 5 Scale): Inflammation: 1.4 +/− 0.9
  Histopathology score (0 to 5 Scale): Regeneration: 1.4 +/− 0.5
Rat kidney [2]; 100 mg/kg
  Histopathology score (0 to 5 Scale): Casts: 2.6 +/− 0.5
  Histopathology score (0 to 5 Scale): Dilation: 3.2 +/− 0.4
  Histopathology score (0 to 5 Scale): Inflammation: 3 +/− 0
  Histopathology score (0 to 5 Scale): Regeneration: 4 +/− 0
Rat kidney [2]; 300 mg/kg
  Histopathology score (0 to 5 Scale): Casts: 0 +/− 0
  Histopathology score (0 to 5 Scale): Dilation: 0 +/− 0
  Histopathology score (0 to 5 Scale): Inflammation: 0 +/− 0
  Histopathology score (0 to 5 Scale): Regeneration: 0 +/− 0

## NC[C@H]1O[C@H](O[C@H]2[C@H](O)[C@@H](O[C@H]3O[C@H](CO)[C@@H](O)[C@H](N)[C@H]3O)[C@H](N)C[C@@H]2N)[C@H](N)C[C@@H]1O [Tobramycin, tobramycin]
Rat kidney [2]; 10 mg/kg
  Histopathology score (0 to 5 Scale): Casts: 0 +/− 0
  Histopathology score (0 to 5 Scale): Dilation: 0.4 +/− 0.9
  Histopathology score (0 to 5 Scale): Inflammation: 0.4 +/− 0.9
  Histopathology score (0 to 5 Scale): Regeneration: 1 +/− 1.4
Rat kidney [2]; 30 mg/kg
  Histopathology score (0 to 5 Scale): Casts: 0.8 +/− 0.4
  Histopathology score (0 to 5 Scale): Dilation: 1.6 +/− 1.1
  Histopathology score (0 to 5 Scale): Inflammation: 1.8 +/− 0.8
  Histopathology score (0 to 5 Scale): Regeneration: 2.2 +/− 0.8
Rat kidney [2]; 100 mg/kg
  Histopathology score (0 to 5 Scale): Casts: 1.8 +/− 0.8
  Histopathology score (0 to 5 Scale): Dilation: 1.6 +/− 1.1
  Histopathology score (0 to 5 Scale): Inflammation: 2.4 +/− 0.9
  Histopathology score (0 to 5 Scale): Regeneration: 3 +/− 0.7
[3]; 10 mg/kg
  ALB, day 6: 4.0 g/dL
  ALP, day 6: 670 U/L
  ALT: 41
  ALT, day 6: 29 U/L
  AMYL, day 6: 1719 U/L
  AST, day 6: 65 U/L
  BUN, day 6: 16 mg/dL
  Body weight Day 1: 243 g
  Body weight Day 2: 256 g
  Body weight Day 3: 264 g
  Body weight Day 4: 277 g
  Body weight Day 5: 271 g
  Body weight Day 6: 291 g
  Body weight Day 7: 299 g
  Body weight Day 8: 307 g
  Body weight Day 9: 315 g
  Body weight Day 10: 327 g
  Body weight Day 11: 333 g
  Body weight Day 12: 330 g
  Body weight Day 13: 347 g
  Body weight Day 14: 352 g
  CHOL, day 6: 78 mg/dL
  Cre, day 6: 0.8 mg/dL
  GLOB, day 6: 1.8 g/dL
  GLU, day 6: 154 mg/dL
  T-PRO, day 6: 5.9 g/dL
  TBIL: 0.1
  TBIL, day 6: 0.1 mg/dL
[3]; 30 mg/kg
  ALB, day 6: 4.0 g/dL
  ALP, day 6: 583 U/L
  ALT, day 6: 32 U/L
  AMYL, day 6: 1658 U/L
  AST, day 6: 65 U/L
  BUN, day 6: 15 mg/dL
  Body weight Day 1: 250 g
  Body weight Day 2: 256 g
  Body weight Day 3: 264 g
  Body weight Day 4: 270 g
  Body weight Day 5: 280 g
  Body weight Day 6: 288 g
  Body weight Day 7: 294 g
  Body weight Day 8: 295 g
  Body weight Day 9: 307 g
  Body weight Day 10: 318 g
  Body weight Day 11: 323 g
  Body weight Day 12: 321 g
  Body weight Day 13: 321 g
  Body weight Day 14: 330 g
  CA: 11.2
  CHOL, day 6: 81 mg/dL
  Cre, day 6: 0.7 mg/dL
  GLOB, day 6: 1.8 g/dL
  GLU, day 6: 155 mg/dL
  Organ weights Heart: 1.44
  Organ weights Kidney Rt.: 2.1
  Organ weights Liver: 11.3
  Organ weights Lung: 2.96
  Organ weights Pancreas: 0.85
  Organ weights testes: 3.45
  T-PRO, day 6: 5.8 g/dL
  TBIL: 0.1
  TBIL, day 6: 0.1 mg/dL
[3]; 100 mg/kg
  ALB, day 6: 4.0 g/dL
  ALP, day 6: 596 U/L
  ALT, day 6: 36 U/L
  AMYL, day 6: 1560 U/L
  AST, day 6: 75 U/L
  BUN, day 6: 19 mg/dL
  Body weight Day 1: 246 g
  Body weight Day 2: 251 g
  Body weight Day 3: 259 g
  Body weight Day 4: 264 g
  Body weight Day 5: 268 g
  Body weight Day 6: 277 g
  Body weight Day 7: 281 g
  Body weight Day 8: 287 g
  Body weight Day 9: 280 g
  Body weight Day 10: 293 g
  Body weight Day 11: 296 g
  Body weight Day 12: 283 g
  Body weight Day 13: 296 g
  Body weight Day 14: 299 g
  CA, day 6: 10.8 mg/dL
  CHOL, day 6: 82 mg/dL
  Cre: 0.8
  Cre, day 6: 0.7 mg/dL
  GLOB, day 6: 1.6 g/dL
  GLU, day 6: 148 mg/dL
  T-PRO, day 6: 5.6 g/dL
  TBIL: 0.1
  TBIL, day 6: 0.1 mg/dL
